The subject of the test is L. donovani-infected THP-1 macrophages, intracellular amastigote imaging. Description: antileishmanial activity in infected THP-1 macrophages – imaging, THP-1 host macrophages, host toxicity (AID 1159564).
Setting [1] is: measured here: THP-1 host cell toxicity.
Setting [2] is: measured here: amastigotes per macrophage.

pIC50: −log10 of the molar value. Activity calls are given as the source filed them. No rule for the calls is given here.

The term IC50 denotes the concentration that inhibits the measured activity by half. Usually pIC50 stands for the IC50 on a negative log10 scale, so that one unit is a factor of ten. On to `NC(N)=Nc1nc(-c2ccc(NC(N)=NCCN3CCCC3)cc2)cs1`, for which the IC50 is > 50 µM (inactive). Also, the pIC50 under setting [1] was less than 4.30. In addition, under setting [2], the pIC50 was less than 4.30.
Take `CS(=O)(=O)c1ccc(Nc2nccc(Nc3n[nH]c4ccc(F)cc34)n2)c(F)c1`: the negative logarithm of the IC50 (pIC50) was 4.89. Under setting [1], this molecule showed a negative-log IC50 (pIC50) of 4.80. The same molecule gave a negative logarithm of the IC50 (pIC50) under setting [2] of 5.00.
With `O=C(NCCc1csc(-c2cccc(F)c2)n1)c1ccco1`, the IC50 was > 50 µM (inactive). Under setting [1], this molecule showed a negative logarithm of the IC50 (pIC50) of less than 4.30. Under setting [2], this molecule gave a pIC50 of less than 4.30.
As for `C=CC[C@@H]1CC=C[C@@H](C)N1C(=O)CCc1nnc(-c2ccc3c(c2)OCO3)o1`, the pIC50 is 5.10. In addition, the pIC50 under setting [1] is 4.89. The molecule further had a pIC50 under setting [2] of 5.49.
With `COc1ccc(-c2nc3ncccc3o2)cc1NC(=O)c1cccs1`, the IC50 is > 50 µM (inactive). Under setting [1], this molecule had a pIC50 of 4.70. This molecule also gave a negative logarithm of the IC50 (pIC50) under setting [2] of less than 4.30.
With `Cn1c(CN2CCN(c3ncc(C(F)(F)F)cc3Cl)CC2)nc2ccncc21`, the IC50 is > 50 µM (inactive). This molecule gave a pIC50 under setting [1] of 5.20.
In the case of `O=C1OCc2ccc(Nc3nccc(-c4cnn5ncccc45)n3)cc21`, the pIC50 is 7.80. The same molecule had a negative logarithm of the IC50 (pIC50) under setting [1] of 8.10. Besides, the negative logarithm of the IC50 (pIC50) under setting [2] was 7.89.
On to `COC(=O)c1ccc(-c2cnc3ccc(NCc4ccccn4)nn23)cc1`, for which the IC50 was > 50 µM (inactive). This molecule also showed a pIC50 under setting [1] of 4.89. The molecule also gave a pIC50 under setting [2] of 4.80.
In the case of `Cc1nn(C2CCS(=O)(=O)C2)c(C)c1CN(C)C(=O)C=Cc1sc2ccccc2c1Cl` (stereo not given), the negative-log IC50 (pIC50) is 4.40. Under setting [1], this molecule gave a pIC50 of 4.70. Besides, under setting [2], the pIC50 was 4.89.
The corresponding values for `COc1ccc(S(=O)(=O)Nc2ccc(C(=O)Nc3nc(-c4ccccn4)cs3)cc2)cc1` are 6.40, 5.00 and 6.80.
On to `COc1ccc(OC)c(S(=O)(=O)N(Cc2c(F)cccc2F)[C@@H]2CCN(C#N)C2)c1`, for which the negative logarithm of the IC50 (pIC50) was 4.60. For the same molecule, under setting [1], the negative logarithm of the IC50 (pIC50) is 4.70. Also, under setting [2], the pIC50 is 4.70.
In the case of `NC(=O)c1cc(NC(=O)c2ccccc2COc2ccccc2)ccc1Cl`, the negative-log IC50 (pIC50) was 5.49. Besides, the negative-log IC50 (pIC50) under setting [1] is 4.80. The pIC50 under setting [2] is 5.80.
In the case of `CC1CN(S(=O)(=O)c2ccc(NC(=O)c3cc(C4CC4)nc4c3cnn4C(C)C)cc2)CC(C)O1` (stereo not given), the IC50 was > 50 µM (inactive). For the same molecule, under setting [1], the pIC50 is 5.00. This molecule had a negative-log IC50 (pIC50) under setting [2] of less than 4.30.
As for `COc1ccc2nccc(NC(=O)C3(OC)CCN(CC(O)c4ccc5c(c4)OCCO5)CC3)c2n1` (stereo not given), the pIC50 was 4.70. Moreover, the pIC50 under setting [1] was 4.60. Under setting [2], this molecule showed a negative logarithm of the IC50 (pIC50) of 5.20.
For `O=C(c1cccc(Nc2ncc(-c3ccc4c(c3)OCO4)cn2)c1)N1CCSC1`, the negative-log IC50 (pIC50) was 5.70. The pIC50 under setting [1] was 4.89. This molecule also showed a pIC50 under setting [2] of 6.00.
Turning to `CNc1nc(C)nc(N2CCc3cc(C(=O)NCc4ccc(-c5ccn[nH]5)cc4Cl)ccc32)n1`, the pIC50 was 6.49. This molecule gave a pIC50 under setting [1] of less than 4.30. The same molecule gave a negative logarithm of the IC50 (pIC50) under setting [2] of 6.40.
In the case of `COc1ccc(S(=O)(=O)NCc2ccc(-c3ccc(CN(C)CCO)cc3)cc2)cc1`, the pIC50 was 4.80. In addition, the pIC50 under setting [1] is 4.70. This molecule gave a pIC50 under setting [2] of 4.70.
With `CS(=O)(=O)c1cccc(CNC(=O)c2cncc(N3CCN(c4ccc(F)cc4)CC3)c2)c1`, the IC50 was > 50 µM (inactive). Under setting [1], this molecule gave a pIC50 of less than 4.30. In addition, the negative-log IC50 (pIC50) under setting [2] was less than 4.30.
For `COCc1cc(Nc2ccccc2)nc(-c2ccccn2)n1`, the pIC50 is 5.10. In addition, the pIC50 under setting [1] is less than 4.30. The molecule further had a pIC50 under setting [2] of 5.30.
Regarding `CN(Cc1nnnn1C1CCN(Cc2ccc(-n3ccnc3)cc2)CC1)c1ccc(F)cc1F`, the IC50 was > 50 µM (inactive). The molecule further showed a pIC50 under setting [1] of less than 4.30. The molecule further had a pIC50 under setting [2] of 4.80.
The corresponding values for `O=C(Nc1nc(-c2ccc(S(=O)(=O)N3CCOCC3)cc2)cs1)c1ccc([N+](=O)[O-])cc1` are > 50 µM (inactive), 5.40 and 5.60.
The corresponding values for `COc1ccccc1C=CCN1C[C@H]2CCC[C@@H](C1)C2(O)c1cccnc1` (stereo not given in full) are > 50 µM (inactive), 4.40 and 4.49.
On to `COCCn1c(-c2ccc3c(c2)OCO3)cnc1NCc1ccccc1OC`, for which the pIC50 was 5.00. Under setting [1], this molecule gave a pIC50 of 4.40. Further, the pIC50 under setting [2] is 5.30.
Consider `O=C(NCc1ccc(-n2cccc2)cc1)c1nc(Cn2ccc([N+](=O)[O-])n2)no1`, for which the IC50 is > 50 µM (inactive). Under setting [1], this molecule had a pIC50 of less than 4.30. For the same molecule, the pIC50 under setting [2] is less than 4.30.
As to `Cc1cc(C)c(C#N)c(SCC(=O)c2ccc3c(c2)OCO3)n1`, the IC50 is > 50 µM (inactive). Further, under setting [1], the pIC50 is less than 4.30. In addition, under setting [2], the negative logarithm of the IC50 (pIC50) is less than 4.30.
As for `CN(C)c1ncc(-c2cncn2CCOc2ccc(Cl)cc2)cn1`, the IC50 was > 50 µM (inactive). Besides, the negative-log IC50 (pIC50) under setting [1] was less than 4.30. The pIC50 under setting [2] was less than 4.30.
As to `COc1cc(-c2noc(CC#N)n2)ccc1OC(F)F`, the IC50 is > 50 µM (inactive). Further, the negative logarithm of the IC50 (pIC50) under setting [1] is 4.30. Besides, the pIC50 under setting [2] was less than 4.30.

Values taken from PubChem BioAssay AID1159564 (GlaxoSmithKline (GSK), 2015).
